{"source": "paper PMC9609861", "about": "“Nebivolol as a Potent TRPM8 Channel Blocker: A Drug-Screening Approach through Automated Patch Clamping and Ligand-Based Virtual Screening” (Membranes, 2022)", "target": "T1, human TRPM8 (Homo sapiens, UniProt Q7Z2W7)", "T1 construct": "expressed in transfected cells", "T1 sequence (Q7Z2W7 whole entry)": "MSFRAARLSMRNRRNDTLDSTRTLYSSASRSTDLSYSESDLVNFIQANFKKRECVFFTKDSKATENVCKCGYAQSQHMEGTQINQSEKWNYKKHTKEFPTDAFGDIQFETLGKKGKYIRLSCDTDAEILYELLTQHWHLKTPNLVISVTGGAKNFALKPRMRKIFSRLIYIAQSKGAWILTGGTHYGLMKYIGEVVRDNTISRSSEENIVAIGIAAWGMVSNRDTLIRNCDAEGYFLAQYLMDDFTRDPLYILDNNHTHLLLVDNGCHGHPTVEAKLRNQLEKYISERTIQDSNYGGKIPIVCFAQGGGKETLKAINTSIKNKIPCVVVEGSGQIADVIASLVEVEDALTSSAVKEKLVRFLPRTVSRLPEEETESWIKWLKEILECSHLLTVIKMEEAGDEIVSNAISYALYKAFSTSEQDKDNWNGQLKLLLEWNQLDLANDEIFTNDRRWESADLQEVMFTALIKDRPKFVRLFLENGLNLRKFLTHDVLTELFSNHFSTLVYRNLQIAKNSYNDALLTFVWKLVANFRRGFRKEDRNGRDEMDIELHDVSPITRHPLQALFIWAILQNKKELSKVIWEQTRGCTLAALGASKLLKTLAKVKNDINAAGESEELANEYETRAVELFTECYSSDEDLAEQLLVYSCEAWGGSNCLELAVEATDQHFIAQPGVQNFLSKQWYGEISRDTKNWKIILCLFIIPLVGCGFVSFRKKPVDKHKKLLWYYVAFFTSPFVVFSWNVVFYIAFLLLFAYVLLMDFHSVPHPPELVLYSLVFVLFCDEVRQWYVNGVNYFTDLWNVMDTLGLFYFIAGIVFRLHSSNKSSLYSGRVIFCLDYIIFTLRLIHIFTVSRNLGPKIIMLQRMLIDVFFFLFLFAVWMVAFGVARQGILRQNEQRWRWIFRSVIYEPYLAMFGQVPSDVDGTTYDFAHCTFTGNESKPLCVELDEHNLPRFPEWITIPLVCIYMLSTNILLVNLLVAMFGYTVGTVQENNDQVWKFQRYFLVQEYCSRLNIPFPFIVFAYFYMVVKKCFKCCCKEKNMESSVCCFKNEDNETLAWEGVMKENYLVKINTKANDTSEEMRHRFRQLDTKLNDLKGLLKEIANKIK", "test": "Automated patch clamp (IonFlux 16) of menthol-evoked TRPM8 currents in HEK293 cells stably expressing human TRPM8", "assay_type": "cell-based", "description": "HEK293 cells, stably expressing human TRPM8 (GenBank number NM_024080), were cultured in T75 tissue culture flasks using Dulbecco’s modified Eagle medium (Euroclone, Pero, Italy), supplemented with 10% FBS (Euroclone, Pero, Italy) plus Geneticin (Sigma-Aldrich, St. Louis, MI, USA) 800 μg/mL at 37° C, in a humidified 5% CO2 atmosphere. The cells were maintained until they reached 70~80% confluency. Prior to use, the cells were washed twice with Ca^2+ and Mg^2+ free PBS (Euroclone, Pero, Italy), subsequently detached using Accutase (Euroclone, Pero, Italy), and kept in suspension using CHO-SFM-II medium (Gibco, by Thermo Fisher Scientific, Carlsbad, CA, USA). The cells were then resuspended in the external solution after a centrifugation at 1000 rpm for 2 min. Single-cells suspension, with a final concentration of 3–5 million cells/mL, was required for the automated patch clamp electrophysiology procedure.\nWe performed automated patch clamp recordings by using the IonFlux 16 system (Fluxion Biosciences, Alameda, CA, USA). The procedure includes four automated phases—prime, trap, break, and data acquisition—in the whole-cells voltage clamp. The cells were voltage clamped at a holding potential of −60 mV, stepped to −100 mV, ramped to +100 mV in 200 ms, and finally stepped back to −60 mV. Voltage command was executed every 5 s, and currents were recorded with a sampling rate of 5 kHz. […] The interval range between each application was 90 s, and intervals included washing cells with an external solution-containing vehicle. However, the duration of each application was adjusted based on each drug’s lipophilicity and kinetic of inhibition. For leakage subtraction, leakage was measured by applying a short 20 mV pulse (typically from −80 mV to −100 mV) at the beginning of each sweep to measure the current difference. By assuming linear leakage and subtracting proportional currents from each of the different voltage command segments, the software performs automatic leakage subtraction. […] The extracellular solution contained 140 mM NaCl, 4 mM KCl, 1 mM MgCl2, 10 mM glucose, and 10 mM HEPES, pH 7.4 with NaOH and 310 mOsm. We removed Ca^2+ from the external solution to avoid the Ca^2+-dependent desensitization of TRPM8. The intracellular solution contained the following (mM): 60 CsCl, 70 CsF, 5 Na2ATP, 10 HEPES, and 10 EGTA, pH 7.2 with CSOH and 295 mOsm. All recordings were performed at a temperature of 20 ± 1 °C.\nAll compounds were obtained from Sigma-Aldrich. Stock solutions were prepared in 50 mM of dimethyl sulfoxide (DMSO) and stored at −20° C.\nThe analysis of the data was carried out using the ‘data analyzer software’ (Data Analyzer v. 5.0 (beta), Fluxion Biosciences, Alameda, CA, USA), Microsoft Excel 365, and the Prism 9.0 software (GraphPad Software Inc., San Diego, CA, USA). The average current density of the last three recordings at +80 mV in each application period was used as the current amplitude.\nIC50 and EC50 were calculated by fitting the four-parameter Hill equation using GraphPad Prism.\nFour-parameter Hill equation: f(x)=Imin+(Imax−Imin/1+(C50/x)^h)\nData are expressed as the mean ± standard deviation (SD).", "key": {"[1]": {"details": "HEK293; read-out: Average Percentage Inhibition at 10 µM"}, "[2]": {"details": "read-out: IC50, inhibition of menthol-induced TRPM8 current"}, "[3]": {"details": "at concentrations higher than IC50, prolonged washing, data not shown"}, "[4]": {"details": "at concentrations higher than 50 µM"}}, "note": "Read-outs that look alike come from different tables or passages of the source.", "data": [{"compound": "CC(C)NCC(O)COc1cccc2ccccc12", "note": "(stereo not drawn) [Propranolol, propranolol]", "values": [{"measurement": "inhibition at 10 µM", "setting": "[1]", "result": 12, "unit": "%"}, {"measurement": "IC50", "setting": "[2]", "result": "45 ± 7", "unit": "µM"}, {"measurement": "Blocking effect on TRPM8 menthol-evoked currents", "setting": "β-blocker screen", "result": "showed a blocking effect"}]}, {"compound": "NC(=O)N1c2ccccc2CC(=O)c2ccccc21", "note": "[Oxcarbazepine, oxcarbazepine]", "values": [{"measurement": "inhibition at 10 µM", "setting": "[1]", "result": 0, "unit": "%"}]}, {"compound": "CCCCNc1ccc(C(=O)OCCN(C)C)cc1", "note": "[Tetracaine, tetracaine]", "values": [{"measurement": "inhibition at 10 µM", "setting": "[1]", "result": 0, "unit": "%"}]}, {"compound": "CCCNCC(O)COc1ccccc1C(=O)CCc1ccccc1", "note": "(stereo not drawn) [Propafenone, propafenone]", "values": [{"measurement": "inhibition at 10 µM", "setting": "[1]", "result": 26, "unit": "%"}, {"measurement": "Block of outward TRPM8 currents induced by menthol", "setting": "below 50 µM", "result": "significant blocking capacity"}, {"measurement": "IC50", "setting": "[2]", "result": "16.8 ± 5", "unit": "µM"}]}, {"compound": "Cc1cccc(C)c1OCC(C)N", "note": "(stereo not drawn) [Mexiletine, mexiletine]", "values": [{"measurement": "inhibition at 10 µM", "setting": "[1]", "result": 0, "unit": "%"}]}, {"compound": "CC(C)(C)NCC(O)COc1cccc2c1CC(O)C(O)C2", "note": "(stereo not drawn) [Nadolol, nadolol]", "values": [{"measurement": "inhibition at 10 µM", "setting": "[1]", "result": 0, "unit": "%"}]}, {"compound": "CCCC(=O)Nc1ccc(OCC(O)CNC(C)C)c(C(C)=O)c1", "note": "(stereo not drawn) [Acebutolol, acebutolol]", "values": [{"measurement": "inhibition at 10 µM", "setting": "[1]", "result": 0, "unit": "%"}]}, {"compound": "COCCc1ccc(OCC(O)CNC(C)C)cc1", "note": "(stereo not drawn) [Metoprolol, metoprolol]", "values": [{"measurement": "inhibition at 10 µM", "setting": "[1]", "result": 0, "unit": "%"}]}, {"compound": "COc1ccccc1OCC(O)CN1CCN(CC(=O)Nc2c(C)cccc2C)CC1", "note": "(stereo not drawn) [Ranolazine, ranolazine]", "values": [{"measurement": "inhibition at 10 µM", "setting": "[1]", "result": 0, "unit": "%"}]}, {"compound": "CC(C)NCC(O)COc1ccc(CC(N)=O)cc1", "note": "(stereo not drawn) [Atenolol, atenolol]", "values": [{"measurement": "inhibition at 10 µM", "setting": "[1]", "result": 0, "unit": "%"}]}, {"compound": "OC(CNCC(O)C1CCc2cc(F)ccc2O1)C1CCc2cc(F)ccc2O1", "note": "(stereo not drawn) [Nebivolol, nebivolol]", "values": [{"measurement": "inhibition at 10 µM", "setting": "[1]", "result": 100, "unit": "%"}, {"measurement": "Reversibility of the inhibiting effect on washing", "setting": "[3]", "result": "irreversible inhibiting effect"}, {"measurement": "Inhibitory effect of nebivolol compared with carvedilol", "setting": "electrophysiological data", "result": "ten times stronger"}, {"measurement": "IC50", "setting": "[2]", "result": "0.97 ± 0.15", "unit": "µM"}, {"measurement": "Blocking effect on TRPM8 menthol-evoked currents", "setting": "β-blocker screen", "result": "showed a blocking effect"}]}, {"compound": "NCC1(CC(=O)O)CCCCC1", "note": "[Gabapentin, gabapentin]", "values": [{"measurement": "inhibition at 10 µM", "setting": "HEK293, read-out: Average Percentage Inhibition at 10 µM", "result": 0, "unit": "%"}]}, {"compound": "NC(=O)c1cn(Cc2c(F)cccc2F)nn1", "note": "[Rufinamide, rufinamide]", "values": [{"measurement": "inhibition at 10 µM", "setting": "[1]", "result": 0, "unit": "%"}]}, {"compound": "COc1ccccc1OCCNCC(O)COc1cccc2[nH]c3ccccc3c12", "note": "(stereo not drawn) [Carvedilol, carvedilol]", "values": [{"measurement": "inhibition at 10 µM", "setting": "[1]", "result": 57, "unit": "%"}, {"measurement": "Reversibility of the inhibiting effect on washing", "setting": "[3]", "result": "irreversible inhibiting effect"}, {"measurement": "IC50", "setting": "[2]", "result": "9.1 ± 0.6", "unit": "µM"}, {"measurement": "Blocking effect on TRPM8 menthol-evoked currents", "setting": "β-blocker screen", "result": "showed a blocking effect"}]}, {"compound": "O=C1NC(=O)C(c2ccccc2)(c2ccccc2)N1", "note": "[Phenytoin, phenytoin]", "values": [{"measurement": "inhibition at 10 µM", "setting": "[1]", "result": 0, "unit": "%"}, {"measurement": "Block of outward TRPM8 currents induced by menthol", "setting": "[4]", "result": "partial block"}]}, {"compound": "Cc1cccc(COc2ccccc2C(=O)N(CCCN)Cc2cccs2)c1.Cl", "note": "[AMTB, N-(3-Aminopropyl)-2-[(3-methylphenyl)methoxy]-N-(2-thienylmethyl)benzamide hydrochloride]", "values": [{"measurement": "Block of menthol-activated currents", "setting": "1 µM AMTB", "result": "fully blocked"}]}, {"compound": "Nc1nnc(-c2cccc(Cl)c2Cl)c(N)n1", "note": "[Lamotrigine, lamotrigine]", "values": [{"measurement": "inhibition at 10 µM", "setting": "[1]", "result": 0, "unit": "%"}]}, {"compound": "Nc1nc2ccc(OC(F)(F)F)cc2s1", "note": "[Riluzole, riluzole]", "values": [{"measurement": "inhibition at 10 µM", "setting": "[1]", "result": 0, "unit": "%"}]}, {"compound": "NC(=O)N1c2ccccc2C=Cc2ccccc21", "note": "[Carbamazepine, carbamazepine]", "values": [{"measurement": "inhibition at 10 µM", "setting": "[1]", "result": 0, "unit": "%"}]}, {"compound": "O=C(NCC1CCCCN1)c1cc(OCC(F)(F)F)ccc1OCC(F)(F)F", "note": "(stereo not drawn) [Flecainide, flecainide]", "values": [{"measurement": "inhibition at 10 µM", "setting": "[1]", "result": 0, "unit": "%"}, {"measurement": "Block of outward TRPM8 currents induced by menthol", "setting": "[4]", "result": "partial block"}]}]}
